Experimental findings from patent publication US6864275B1, “Compounds and methods for use thereof in the treatment of cancer” (UAF Technologies and Research, LLC, priority 1997, dated 2005) are described below.

One data set relates to colon tumor cells (HT29). Put plainly: MTT cell growth inhibition, HT29 colon tumor cells. It counts as cell-based. Conditions: 3-6 days incubation, read-out: IC50 Human Colon Carcinoma. The procedure:
(§1) The following cell culture tests were performed to test the toxicity of benzimidazole derivative compounds of the present invention on colon and melanoma tumor cells. The viability of the cells were tested by looking at MTT (3-[4,5-dimethylthiazol-2-yl]-2,5-diphenyltetrazolium bromide) reduction. MTT assay is a well known measure of cell viability.
(§2) The colon tumor cells (HT29) and the melanoma cells (B16 murine melanoma) were seeded (1000-2000 cells) into each well of a 96-well microtiter plate and allowed to grow. Twenty-four hours later, increasing concentrations of each benzimidazole derivative were added to the plates and the cells were allowed to incubate for 3-6 days in the presence of the drugs. MTT reagent was then added to the wells and allowed to incubate for 4 hours at 37° C., after which the formazan metabolite was solubilized with acidic isopropanol and the absorbance was read. Experimental controls included blank wells to which no cells were added (zero point of formazan absorbance) and control wells to which no drug was added (highest level of formazan absorbance). Each drug concentration was tested in duplicate and the resulting average absorbance was plotted against drug concentration using the EZ-ED50 computer program on a personal computer interfaced to the microtiter plate reader. […] The IC50 value is then derived from this equation by EZ-ED50.

For data set [1], the system named is B16 murine melanoma. Put plainly: MTT cell growth inhibition, B16 melanoma cells. It counts as cell-based. Particulars: 3-6 days incubation. The procedure: as §1, §2
Data set [2] has as its system B16 murine melanoma. Put plainly: In vivo B16 murine melanoma tumor model. Conditions: qd × 5; for T/C (%): mean survival treated/control; for # of Survivors: survived at least 60 days. Also noted: species or system B6D2F1 mice. How it is done:
B6D2F1 mice received interperitoneally (i.p.) inocula of B16 murine melanoma brei prepared from B16 tumors growing s.c. in mice (Day 0). On Day 1, mice were randomized into groups, with 20 mice in the control group and 10 mice in each treated group (except there were 8 mice in selected groups given compound 3-13. Treatment with drugs or vehicle control was started on Day 1.
The mean survival times of all groups were calculated and results were expressed as mean survival of treated mice/mean survival of control mice (T/C)×100%. A “T/C” value of 150 means that the mice in the treated group lived 50% longer than those of the control group; this is sometimes referred to as the increase in life span, or ILS value.
Mice that survived for at least 60 days were considered to be long-term survivors, or cures, in the B16 model. The universally accepted cut-off for activity in this model, which has been used for years by the NCI, is T/C=125. Conventional use of B16 over the years has set the following levels of activity:
T/C>300, with long-term survivors=excellent, curative activity.

The next data set has as its system Tubulin. Put plainly: Microtubule inhibition assay (tubulin polymerization, absorbance at 350 nm). It counts as biochemical, bovine. Conditions: compound at 2 μM, after 30 minutes. The procedure:
The benzimidazole derivatives of this invention were evaluated for their ability to inhibit formation of microtubules, following the procedure of Luduena, R. F. and M. C. […] Microtubule polymerization was followed by performing the reaction in a cuvette and monitoring UV absorbance at 350 nm, allowing direct visualization of the time course of the polymerization.

Usually IC50 stands for the concentration needed to halve the response being measured. For `CCC(C)COC(=O)c1ccc2nc(NC(=O)OC)[nH]c2c1` (stereo not shown) [3-19], the IC50 with colon tumor cells (HT29) is 12 nM; in the data set with B16 murine melanoma [1], 48 nM. Also, the “# of Toxic Deaths” value in the data set with B16 murine melanoma [2] (20 mg/kg/i.v) is 0; in the data set with B16 murine melanoma [2] (40 mg/kg/i.v), 6; with B16 murine melanoma [2] (50 mg/kg/i.p), 0; in the data set with B16 murine melanoma [2] (100 mg/kg/i.p) it was 0. Moreover, the “Weight Change (Day 12)” value in the data set with B16 murine melanoma [2] (20 mg/kg/i.v) was “+7.8%”; with B16 murine melanoma [2] (40 mg/kg/i.v), “+2.5%”; in the data set on B16 murine melanoma [2] (50 mg/kg/i.p), “+9.6%”; with B16 murine melanoma [2] (100 mg/kg/i.p), “+10.8%”. Besides, the “T/C (%)” value with B16 murine melanoma [2] (20 mg/kg/i.v) was found to be 106%; in the data set with B16 murine melanoma [2] (40 mg/kg/i.v), 73%; in the data set on B16 murine melanoma [2] (50 mg/kg/i.p), 119%; with B16 murine melanoma [2] (100 mg/kg/i.p) it was 124%. Moreover, the “# of Survivors” value in the data set on B16 murine melanoma [2] (20 mg/kg/i.v), with B16 murine melanoma [2] (40 mg/kg/i.v), in the data set with B16 murine melanoma [2] (50 mg/kg/i.p) and in the data set with B16 murine melanoma [2] (100 mg/kg/i.p) was 0 each time. Besides, the “Tubulin Polymerization Inhibition, % Inhibition” value in the data set on Tubulin is recorded as 28%.

Take `COC(=O)Nc1nc2ccc(C(=O)OCC(C)CC(C)(C)C)cc2[nH]1` (stereo not shown) [3-13]: the IC50 in the data set on colon tumor cells (HT29) turned out to be 19 nM; in the data set with B16 murine melanoma [1], 4.6 nM. Further, the “# of Toxic Deaths” value with B16 murine melanoma [2] (2.5 mg/kg/i.v) came out at 0; with B16 murine melanoma [2] (5 mg/kg/i.v), 7; in the data set with B16 murine melanoma [2] (50 mg/kg/i.p), 0; with B16 murine melanoma [2] (100 mg/kg/i.p), 0. The “Weight Change (Day 12)” value is reported as “+11.7%” with B16 murine melanoma [2] (2.5 mg/kg/i.v), “+3.6%” in the data set with B16 murine melanoma [2] (5 mg/kg/i.v), “+12.5%” with B16 murine melanoma [2] (50 mg/kg/i.p) and “+9.8%” in the data set on B16 murine melanoma [2] (100 mg/kg/i.p). Further, the “T/C (%)” value in the data set with B16 murine melanoma [2] (2.5 mg/kg/i.v) amounted to 92%; in the data set on B16 murine melanoma [2] (5 mg/kg/i.v), 91%; with B16 murine melanoma [2] (50 mg/kg/i.p), 94%; with B16 murine melanoma [2] (100 mg/kg/i.p), 75%. For the same compound, the “# of Survivors” value in the data set on B16 murine melanoma [2] (2.5 mg/kg/i.v), in the data set with B16 murine melanoma [2] (5 mg/kg/i.v), with B16 murine melanoma [2] (50 mg/kg/i.p) and with B16 murine melanoma [2] (100 mg/kg/i.p) was 0 throughout. Also, the “Tubulin Polymerization Inhibition, % Inhibition” value in the data set with Tubulin is listed as 28%.

On to `COC(=O)Nc1nc2ccc(C(=O)OCCCCCl)cc2[nH]1` [Cpd. No. 3-1], for which the IC50 in the data set on colon tumor cells (HT29) is 10 nM. Inhibition in the data set with B16 murine melanoma [1] was half-maximal at 11 nM (IC50). In the data set on B16 murine melanoma [2] (10 mg/kg/i.v), the “# of Toxic Deaths” value came out at 0, the “Weight Change (Day 12)” value is listed as “+9.3%”, the “T/C (%)” value is 97% and the “# of Survivors” value was 0. In the data set on B16 murine melanoma [2] (20 mg/kg/i.v), the “# of Toxic Deaths” value was 0, the “Weight Change (Day 12)” value is “+6.3%”, the “T/C (%)” value was determined as 98% and the “# of Survivors” value amounted to 0. Further, in the data set with B16 murine melanoma [2] (50 mg/kg/i.p), the “# of Toxic Deaths” value was 0; the “Weight Change (Day 12)” value is recorded as “+7.5%”; the “antitumor activity level by NCI criteria” value is “weak activity (T/C=125-150, weak activity)”; the “T/C (%)” value stood at 132%. Moreover, in the data set on B16 murine melanoma [2] (100 mg/kg/i.p), the “# of Toxic Deaths” value turned out to be 0, the “Weight Change (Day 12)” value is given as “+12.9%”, the “T/C (%)” value was determined as 108% and the “# of Survivors” value turned out to be 0. For the same compound, the “Tubulin Polymerization Inhibition, % Inhibition” value in the data set on Tubulin was 28%.

With `C=CCCOC(=O)c1ccc2nc(NC(=O)OC)[nH]c2c1` [3-6], the IC50 in the data set with colon tumor cells (HT29) worked out at 7.6 nM; in the data set on B16 murine melanoma [1], 44 nM. In addition, the “# of Toxic Deaths” value with B16 murine melanoma [2] (10 mg/kg/i.v), in the data set with B16 murine melanoma [2] (20 mg/kg/i.v), in the data set on B16 murine melanoma [2] (50 mg/kg/i.p) and in the data set on B16 murine melanoma [2] (100 mg/kg/i.p) was 0 each time. The “Weight Change (Day 12)” value in the data set with B16 murine melanoma [2] (10 mg/kg/i.v) is listed as “+8.7%”; in the data set with B16 murine melanoma [2] (20 mg/kg/i.v) it was “+6.5%”; with B16 murine melanoma [2] (50 mg/kg/i.p), “+9.4%”; with B16 murine melanoma [2] (100 mg/kg/i.p), “+8.9%”. The “T/C (%)” value in the data set with B16 murine melanoma [2] (10 mg/kg/i.v) was 107%; in the data set with B16 murine melanoma [2] (20 mg/kg/i.v), 99%; in the data set on B16 murine melanoma [2] (50 mg/kg/i.p) it was 119%; in the data set with B16 murine melanoma [2] (100 mg/kg/i.p), 118%. In addition, the “# of Survivors” value with B16 murine melanoma [2] (10 mg/kg/i.v), with B16 murine melanoma [2] (20 mg/kg/i.v), in the data set with B16 murine melanoma [2] (50 mg/kg/i.p) and in the data set with B16 murine melanoma [2] (100 mg/kg/i.p) was 0 each time. The “Tubulin Polymerization Inhibition, % Inhibition” value in the data set with Tubulin is 12%.
